± gives the expanded uncertainty stated by the source.
Experiment: xn = mol fraction of the nth substance listed
Settings: 101.3 kPa, Liquid; for speed of sound: Sing-around technique in a fixed-path interferometer; for mass density: Vibrating tube method

CCCCn1cc[n+](C)c1.COS(=O)(=O)[O-] [1-butyl-3-methylimidazolium methyl sulfate] + CO
Settings	mass density, 298.15 K [kg/m3]	mass density, 303.15 K [kg/m3]	mass density, 308.15 K [kg/m3]	speed of sound, 298.15 K [m/s]	speed of sound, 303.15 K [m/s]	speed of sound, 308.15 K [m/s]
x1 = 0.0422	871.193 ± 0.34	866.765 ± 0.34	862.332 ± 0.34	1191.8 ± 0.66	1176.5 ± 0.65	1161.3 ± 0.65
x1 = 0.094	942.4 ± 0.23	938.21 ± 0.23	934.013 ± 0.23	1273.9 ± 0.75	1259.6 ± 0.75	1245.1 ± 0.74
x1 = 0.1857	1027.84 ± 0.2	1023.91 ± 0.19	1019.99 ± 0.19	1384.7 ± 0.94	1371.1 ± 0.94	1357.5 ± 0.94
x1 = 0.2858	1084.79 ± 0.28	1081.04 ± 0.28	1077.29 ± 0.28	1464 ± 1.2	1450.9 ± 1.2	1437.7 ± 1.2
x1 = 0.3729	1118.3 ± 0.43	1114.64 ± 0.42	1111 ± 0.42	1512.2 ± 1.4	1499.3 ± 1.4	1486.4 ± 1.4
x1 = 0.4772	1146.38 ± 0.67	1142.82 ± 0.66	1139.26 ± 0.66	1553.5 ± 1.7	1540.9 ± 1.7	1528.2 ± 1.7
x1 = 0.5769	1166.12 ± 0.95	1162.61 ± 0.95	1159.12 ± 0.94	1583.1 ± 1.9	1570.7 ± 1.9	1558.2 ± 1.9
x1 = 0.6775	1181.29 ± 1.3	1177.83 ± 1.3	1174.38 ± 1.3	1606.1 ± 2.2	1593.8 ± 2.2	1581.4 ± 2.2
x1 = 0.7947	1194.94 ± 1.8	1191.5 ± 1.8	1188.07 ± 1.8	1627 ± 2.5	1614.7 ± 2.5	1602.4 ± 2.5
x1 = 0.8923	1204.14 ± 2.3	1200.73 ± 2.2	1197.33 ± 2.2	1641.7 ± 2.8	1629.5 ± 2.8	1617.2 ± 2.8
x1 = 0.9526	1208.98 ± 2.6	1205.6 ± 2.6	1202.23 ± 2.5	1649.4 ± 3	1637.2 ± 3	1624.9 ± 3
x1 = 1	1212.06 ± 2.8	1208.7 ± 2.8	1205.35 ± 2.8	1654.6 ± 3.1	1642.2 ± 3.1	1630 ± 3.1
